Where “and” joins values, the source holds several entries; their conditions need not be identical. Equal entries are not always repeated. Entries after “also recorded” stand apart in the source; their conditions may differ.
Legend:
[1] = system: bovine viral diarrhea virus (BVDV); experiment: BVDV plaque assay in MDBK cells; assay type: cell-based; details: for Antiviral effect on BVDV in the presence of thymidine (in words): 1 mM thymidine, cytotoxicity blocked; for Effect on viral yield: MDBK cells with BVDV, without thymidine; for Antiviral effect on BVDV replication (in words): increasing concentrations; for Decrease in BVDV replication / viral titers: in the presence of 1 mM thymidine; for Pfu/microL Avg: average of three; for Pfu/microL: individual replicates
MDBK cells [2] = system: MDBK cells
HCV 1 bN replicon [3] = details: 100 uM, 1 mM thymidine, 72 hours, Huh7
MDBK cells [4] = experiment: Host cell growth / cytotoxicity, mock-infected MDBK cells counted by flow cytometry; details: for Decrease in cell growth: confluent MDBK cells, concentrations used for the AZA/MPA comparison; for Cellular cytotoxicity / cell viability at antiviral concentrations: MDBK cells, concentrations assayed
[5] = given to mice; cited from earlier work
HCV 1 bN replicon [6] = details: two recent studies; cited from earlier work

SMILES: Sc1ncnc2nc[nH]c12 [6-mercaptopurine]
- Antiviral effect on BVDV in the presence of thymidine (in words) [1]: significantly reduced; also recorded: still possessed this antiviral effect
- Effect on viral yield [1]: decreased
- Antiviral effect on BVDV replication (in words) ([1]; MDBK cells, listed as 6MP): sensitive; also recorded: specifically inhibited
- Decrease in BVDV replication / viral titers [1]: 2 log
- Effect on cell growth (MDBK cells [2]): decreased
- Effect on cell growth in the presence of thymidine (MDBK cells [2]): neither azathioprine metabolite had an appreciable effect

SMILES: CSc1ncnc2nc[nH]c12 [6-methyl mercaptopurine]
- Effect on viral yield [1]: no effect
- Effect on cell growth (MDBK cells [2]): no effect

SMILES: Nc1nc2nc[nH]c2c(=S)[nH]1 [6-thioguanine]
- Antiviral effect on BVDV in the presence of thymidine (in words) [1]: did not
- Effect on viral yield [1]: decreased
- Antiviral effect on BVDV replication (in words) ([1]; MDBK cells): no antiviral affect
- Decrease in BVDV replication / viral titers [1]: did not
- Effect on cell growth (MDBK cells [2]): decreased
- Effect on cell growth in the presence of thymidine (MDBK cells [2]): neither azathioprine metabolite had an appreciable effect

SMILES: OC[C@H]1O[C@@H](n2cnc3c(S)ncnc32)[C@H](O)[C@@H]1O [6TI, 6 thioinosine]
- Antiviral properties relative to 6MP ([1]; BVDV replication, FIG. 11): 2-3 fold

SMILES: Cn1cnc([N+](=O)[O-])c1Sc1ncnc2nc[nH]c12 [AZA, azathioprine]
- Amount of replicon compared to no drug (HCV 1 bN replicon [3]): ~50%
- Increase in number of cycles to reach critical threshold (Ct) compared to no drug (HCV 1 bN replicon [3]): ~1 cycle
- Decrease in cell growth (MDBK cells [4]): ~50%
- Antiviral effect on BVDV in the presence of thymidine (in words) [1]: the majority of the antiviral effect was maintained; also recorded: still occurred
- Inhibition of viral replication relative to inhibition of cell growth ([1]; MDBK cells, increasing AZA, 72 hours): 10-100 fold
- Antiviral effect on BVDV replication (in words) ([1]; MDBK cells): sensitive; also recorded: specifically inhibited
- Decrease of BVDV replication relative to MPA ([1]; at doses that achieved similar cytoxicity): 10 fold
- Virus produced per living cell, compared to cells grown in MPA ([1]; confluent MDBK cells, concentrations causing similar decrease in cell growth): 12%
- Amount of BVDV virus generated, AZA versus MPA ([1]; confluent MDBK cells, doses allowing similar cellular growth, 72 hours): significantly less
- Decrease in BVDV replication / viral titers [1]: two

SMILES: COc1c(C)c2c(c(O)c1C/C=C(\C)CCC(=O)O)C(=O)OC2 [MPA, mycophenolate]
- Decrease in cell growth (MDBK cells [4]): ~50%
- Effect on cell growth (MDBK cells [2]): killed all the cells

SMILES: CC(=O)/C=C\Sc1ncnc2[nH]cnc12 [cis-AVTP, cis-6-(2-acetylvinylthio) purine]
- Cellular cytotoxicity / cell viability at antiviral concentrations (MDBK cells [4]): without cellular cytoxicity
- Cellular cytotoxicity / cell viability at antiviral concentrations (MDBK cells [4]; listed as cisAVTP): did not affect overall cell viability
- Levels of 6MP in the liver and gastrointestinal tract [5]: high levels
- Side effects [5]: no significant side effects
- Antiviral effect on BVDV in the presence of thymidine (in words) [1]: still occurs
- Pfu/microL Avg ([1]; 10 microM): 2 Pfu/microL
- Pfu/microL ([1]; 10 microM, listed as cis): 1.4 Pfu/microL and 2.5 Pfu/microL and 2.1 Pfu/microL
- Pfu/microL Avg ([1]; 100 microM): 0.35 Pfu/microL
- Pfu/microL ([1]; 100 microM, listed as cis): 0.34 Pfu/microL and 0.35 Pfu/microL and 0.36 Pfu/microL
- Antiviral effect on BVDV replication (in words) ([1]; MDBK cells): sensitive; also recorded: significant anti-viral activity
- Antiviral effect on BVDV replication (in words) ([1]; MDBK cells, listed as cisAVTP): able to inhibit

SMILES: NC(=O)c1ncn([C@@H]2O[C@H](CO)[C@@H](O)[C@H]2O)n1 [ribavirin]
- Antiviral (Hepatitis GB) or anti-HCV replicon activity (HCV 1 bN replicon [6]): weak

SMILES: CC(=O)/C=C/Sc1ncnc2[nH]cnc12 [trans-AVTP, trans-6-(2-acetylvinylthio) purine]
- Antiviral activity compared between isomers ([1]; 10 uM): less antiviral than cis-AVTP
- Pfu/microL Avg ([1]; 10 microM): 65.67 Pfu/microL
- Pfu/microL ([1]; 10 microM): 53 Pfu/microL and 73 Pfu/microL and 71 Pfu/microL
- Pfu/microL Avg ([1]; 100 microM): 0.33 Pfu/microL
- Pfu/microL ([1]; 100 microM): 0.32 Pfu/microL and 0.38 Pfu/microL and 0.29 Pfu/microL

— US20050119284A1, “ANTIVIRAL AGENTS AND METHODS OF USE” (priority 2003, published 2005)
